From PMC7265341, “Quantifying CDK inhibitor selectivity in live cells” (Nature Communications, 2020) come the findings set out here.

Like-named read-outs stand apart in the source and are kept apart here.

The target in this assay is T1, CDK11A/Cyclin L2 (Homo sapiens, UniProt Q9UQ88).
T1 sequence (Q9UQ88 1-783): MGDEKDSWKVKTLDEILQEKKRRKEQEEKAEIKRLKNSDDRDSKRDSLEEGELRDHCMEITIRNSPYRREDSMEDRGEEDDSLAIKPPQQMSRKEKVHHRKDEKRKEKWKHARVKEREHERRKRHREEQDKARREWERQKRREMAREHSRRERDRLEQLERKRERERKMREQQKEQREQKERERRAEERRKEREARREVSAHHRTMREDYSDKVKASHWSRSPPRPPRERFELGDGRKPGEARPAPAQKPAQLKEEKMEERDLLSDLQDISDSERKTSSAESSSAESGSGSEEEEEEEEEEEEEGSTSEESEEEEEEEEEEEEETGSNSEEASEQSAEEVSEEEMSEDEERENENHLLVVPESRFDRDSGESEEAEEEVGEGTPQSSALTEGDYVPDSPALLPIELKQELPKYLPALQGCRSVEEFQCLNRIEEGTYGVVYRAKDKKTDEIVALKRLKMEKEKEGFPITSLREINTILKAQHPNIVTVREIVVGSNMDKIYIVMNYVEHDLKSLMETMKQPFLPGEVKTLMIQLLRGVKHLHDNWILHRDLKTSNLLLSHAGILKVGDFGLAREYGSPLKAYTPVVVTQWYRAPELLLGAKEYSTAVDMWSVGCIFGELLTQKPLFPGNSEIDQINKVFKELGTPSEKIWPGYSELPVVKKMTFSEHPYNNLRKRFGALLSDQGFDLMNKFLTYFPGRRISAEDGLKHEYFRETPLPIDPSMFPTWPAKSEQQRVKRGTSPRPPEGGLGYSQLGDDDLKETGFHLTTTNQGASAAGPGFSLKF
Put plainly: NanoBRET live-cell target engagement, CDK11A-NanoLuc/Cyclin L2 in HEK-293. Type of assay: binding.

Setting [1] is: CDK11a/L2, average (± SEM where n=3), read-out: IC50.
[2] abbreviates: CDK11a/L2, experiment 1, read-out: IC50.
The mark [3] stands for this setting: CDK11a/L2, experiment 2, read-out: IC50.
Where [4] appears, read: CDK11a/L2, average, read-out: Inhibition at 10µM (%).
The mark [5] stands for this setting: CDK11a/L2, experiment 1, read-out: Inhibition at 10µM (%).
[6] abbreviates: CDK11a/L2, experiment 2, read-out: Inhibition at 10µM (%).
Where [7] appears, read: 10µM, average of experiments, read-out: CDK11a/L2 Inhibition at 10µM (%).
Where [8] appears, read: 10µM, independent experiment 1, read-out: CDK11a/L2 Inhibition at 10µM (%).
Where [9] appears, read: 10µM, independent experiment 2, read-out: CDK11a/L2 Inhibition at 10µM (%).
Setting [10] is: independent experiment 1, read-out: CDK11a/L2 IC50.
[11] abbreviates: independent experiment 2, read-out: CDK11a/L2 IC50.

What is called Inhibition is the percentage by which the read-out fell short of the control. High values mean a strong effect, low ones a weak effect. For `CC(C)c1cnn2c(NCc3ccccc3-n3cccn3)nc(OC3CCCNC3)nc12` (stereo not shown) [LDC4297], the “Inhibition at 10µM (%)” value reads like this: (CDK11a/L2, average) 56.5%; (CDK11a/L2, experiment 1) 51.7%; (CDK11a/L2, experiment 2) 61.3%.

As for `CC(C)c1c2cc(-c3ccnc(N[C@H]4CC[C@H](NC5CCOCC5)CC4)n3)ccc2nn1C` [LY2857785], the “Inhibition at 10µM (%)” value is, setting by setting: (CDK11a/L2, average) 95.5%; (CDK11a/L2, experiment 1) 95.3%; (CDK11a/L2, experiment 2) 95.7%. The IC50 runs as follows: under setting [1], 17 nM; under setting [2], 10 nM; under setting [3], 23 nM.

`CC(C)N1CCN(c2ccc(Nc3ncc4cc5n(c4n3)C3(CCCCC3)CNC5=O)nc2)CC1` [Lerociclib]: the inhibition at 10 µM came out at 7.4% under setting [4], 2% under setting [5] and 12.8% under setting [6].

With `CNC(=O)c1nn(C)c2c1C(C)(C)Cc1cnc(Nc3ccc(N4CCN(C)CC4)cc3)nc1-2` [Milciclib], the inhibition at 10 µM is, setting by setting: under setting [4], 22.7%; under setting [5], 20.3%; under setting [6], 25%.

In the case of `N#CCNC(=O)c1ccc(-c2ccnc(Nc3ccc(N4CCOCC4)cc3)n2)cc1` [Momelotinib], the inhibition at 10 µM runs as follows: under setting [4], 26.4%; under setting [5], 31.7%; under setting [6], 21.1%.

Consider `CS(=O)(=O)N1CCC(NC(=O)c2[nH]ncc2NC(=O)c2c(Cl)cccc2Cl)CC1` [NVP-LCQ195], for which the “Inhibition at 10µM (%)” value runs as follows: (CDK11a/L2, average) 94.0%; (CDK11a/L2, experiment 1) 93.9%; (CDK11a/L2, experiment 2) 94.1%. Moreover, the IC50 was 160 nM under setting [1], 225 nM under setting [2] and 95 nM under setting [3].

On to `CN1CCN(c2ccc(Nc3ncc4cc(C#N)c(=O)n(C5CCCC5)c4n3)cc2)CC1` [ON123300], for which the inhibition at 10 µM is, setting by setting: under setting [4], 12.6%; under setting [5], 15.7%; under setting [6], 9.5%.

Consider `CN1CCC(c2c(O)cc(O)c3c(=O)cc(-c4ccccc4Cl)oc23)C1CO` (stereo not shown) [P276-00], for which the “Inhibition at 10µM (%)” value reads like this: (CDK11a/L2, average) 34.1%; (CDK11a/L2, experiment 1) 43.4%; (CDK11a/L2, experiment 2) 24.8%.

For the molecule `CC(C)CC(=O)Nc1[nH]nc2c1CN(C(=O)C1CCN(C)CC1)C2(C)C` [PHA-793887], the inhibition at 10 µM runs as follows: under setting [7], 50.1%; under setting [8], 50.7%; under setting [9], 49.4%.

Turning to `CC(C)[C@H](CO)Nc1nc(Nc2ccc(C(=O)O)c(Cl)c2)c2ncn(C(C)C)c2n1` [Purvalanol B], the inhibition at 10 µM under setting [7] was -4.5%, the inhibition at 10 µM under setting [8] is -2.4% and the inhibition at 10 µM under setting [9] is -6.6%.

Regarding `CN1C/C=C/CCOc2cccc(c2)-c2ccnc(n2)Nc2cccc(c2)C1` [SB1317], the inhibition at 10 µM by setting is: under setting [7], 95.6%; under setting [8], 93.3%; under setting [9], 97.9%. The IC50 (average (± SEM where n=3), read-out: CDK11a/L2 IC50) amounted to 190 nM; the IC50 under setting [10] was 200 nM; the IC50 under setting [11] was found to be 180 nM.

For `CN(C)C/C=C/C(=O)Nc1ccc(C(=O)Nc2cccc(Nc3ncc(Cl)c(-c4c[nH]c5ccccc45)n3)c2)cc1` [THZ1], the “CDK11a/L2 Inhibition at 10µM (%)” value (10µM, average of experiments) was found to be 42.5%; the “CDK11a/L2 Inhibition at 10µM (%)” value (10µM, independent experiment 1) is reported as 8.0%; the “CDK11a/L2 Inhibition at 10µM (%)” value (10µM, independent experiment 2) is given as 77.1%. Also, the IC50 reads like this: under setting [10], 450 nM; under setting [11], 230 nM; (independent experiment 3, read-out: CDK11a/L2 IC50) 218 nM; (live HEK-293, 2 h, mean ± S.E.M. (n=3) or mean (n=2), read-out: IC50 for CDK/cyclin complexes, CDK11a/L2) 300 nM.
